Experiments:
[1] = system: CCRF-CEM; experiment: Growth inhibition of human CCRF-CEM cells after 48 hrs by sulforhodamine B assay; assay type: functional
[2] = system: HL-60; experiment: Growth inhibition of human HL-60(TB) cells after 48 hrs by sulforhodamine B assay; assay type: functional; conditions: HL-60, 48 h
[3] = system: K562; experiment: Growth inhibition of human K562 cells after 48 hrs by sulforhodamine B assay; assay type: functional; conditions: K562, 48 h
[4] = system: MOLT-4; experiment: Growth inhibition of human MOLT4 cells after 48 hrs by sulforhodamine B assay; assay type: functional; conditions: MOLT-4, 48 h
[5] = Growth inhibition of human […] cells after 48 hrs by sulforhodamine B assay; assay type: functional
[6] = system: SR; experiment: Growth inhibition of human SR cells after 48 hrs by sulforhodamine B assay; assay type: functional
[7] = system: A549; experiment: Growth inhibition of human A549 cells after 48 hrs by sulforhodamine B assay; assay type: functional; conditions: A549, 48 h
[8] = system: HCC 2998; experiment: Growth inhibition of human HCC2998 cells after 48 hrs by sulforhodamine B assay; assay type: functional; conditions: HCC 2998, 48 h
[9] = system: HCT-116; experiment: Growth inhibition of human HCT116 cells after 48 hrs by sulforhodamine B assay; assay type: functional; conditions: HCT-116, 48 h
[10] = system: HCT-15; experiment: Growth inhibition of human HCT15 cells after 48 hrs by sulforhodamine B assay; assay type: functional; conditions: HCT-15, 48 h
[11] = system: HT-29; experiment: Growth inhibition of human HT-29 cells after 48 hrs by sulforhodamine B assay; assay type: functional; conditions: HT-29, 48 h
[12] = system: KM12; experiment: Growth inhibition of human KM12 cells after 48 hrs by sulforhodamine B assay; assay type: functional; conditions: KM12, 48 h
[13] = system: SW-620; experiment: Growth inhibition of human SW620 cells after 48 hrs by sulforhodamine B assay; assay type: functional; conditions: SW-620, 48 h
[14] = system: SF-268; experiment: Growth inhibition of human SF268 cells after 48 hrs by sulforhodamine B assay; assay type: functional; conditions: SF-268, 48 h
[15] = system: SF-295; experiment: Growth inhibition of human SF295 cells after 48 hrs by sulforhodamine B assay; assay type: functional; conditions: SF-295, 48 h
[16] = system: SF-539; experiment: Growth inhibition of human SF539 cells after 48 hrs by sulforhodamine B assay; assay type: functional; conditions: SF-539, 48 h
[17] = system: SNB-19; experiment: Growth inhibition of human SNB19 cells after 48 hrs by sulforhodamine B assay; assay type: functional; conditions: SNB-19, 48 h
[18] = system: U-251; experiment: Growth inhibition of human U251 cells after 48 hrs by sulforhodamine B assay; assay type: functional; conditions: U-251, 48 h
[19] = system: M14; experiment: Growth inhibition of human M14 cells after 48 hrs by sulforhodamine B assay; assay type: functional; conditions: M14, 48 h
[20] = system: Malme-3M; experiment: Growth inhibition of human MALME-3M cells after 48 hrs by sulforhodamine B assay; assay type: functional
[21] = system: SK-MEL-2; experiment: Growth inhibition of human SK-MEL-2 cells after 48 hrs by sulforhodamine B assay; assay type: functional; conditions: SK-MEL-2, 48 h
[22] = system: SK-MEL-28; experiment: Growth inhibition of human SK-MEL-28 cells after 48 hrs by sulforhodamine B assay; assay type: functional; conditions: SK-MEL-28, 48 h
[23] = system: SK-MEL-5; experiment: Growth inhibition of human SK-MEL-5 cells after 48 hrs by sulforhodamine B assay; assay type: functional; conditions: SK-MEL-5, 48 h
[24] = system: UACC-257; experiment: Growth inhibition of human UACC257 cells after 48 hrs by sulforhodamine B assay; assay type: functional; conditions: UACC-257, 48 h
[25] = system: UACC-62; experiment: Growth inhibition of human UACC62 cells after 48 hrs by sulforhodamine B assay; assay type: functional; conditions: UACC-62, 48 h
[26] = system: IGROV-1; experiment: Growth inhibition of human IGROV1 cells after 48 hrs by sulforhodamine B assay; assay type: functional; conditions: IGROV-1, 48 h
[27] = system: OVCAR-3; experiment: Growth inhibition of human OVCAR-3 cells after 48 hrs by sulforhodamine B assay; assay type: functional; conditions: OVCAR-3, 48 h
[28] = system: OVCAR-4; experiment: Growth inhibition of human OVCAR4 cells after 48 hrs by sulforhodamine B assay; assay type: functional; conditions: OVCAR-4, 48 h
[29] = system: OVCAR-5; experiment: Growth inhibition of human OVCAR5 cells after 48 hrs by sulforhodamine B assay; assay type: functional; conditions: OVCAR-5, 48 h
[30] = system: OVCAR-8; experiment: Growth inhibition of human OVCAR8 cells after 48 hrs by sulforhodamine B assay; assay type: functional; conditions: OVCAR-8, 48 h
[31] = system: SK-OV-3; experiment: Growth inhibition of human SKOV3 cells after 48 hrs by sulforhodamine B assay; assay type: functional; conditions: SK-OV-3, 48 h
[32] = system: 786-0; experiment: Growth inhibition of human 786-0 cells after 48 hrs by sulforhodamine B assay; assay type: functional; conditions: 786-0, 48 h
[33] = system: A498; experiment: Growth inhibition of human A498 cells after 48 hrs by sulforhodamine B assay; assay type: functional; conditions: A498, 48 h
[34] = system: ACHN; experiment: Growth inhibition of human ACHN cells after 48 hrs by sulforhodamine B assay; assay type: functional
[35] = system: CAKI-1; experiment: Growth inhibition of human Caki1 cells after 48 hrs by sulforhodamine B assay; assay type: functional; conditions: CAKI-1, 48 h
[36] = system: RXF 393; experiment: Growth inhibition of human RXF393 cells after 48 hrs by sulforhodamine B assay; assay type: functional; conditions: RXF 393, 48 h
[37] = system: SN12C; experiment: Growth inhibition of human SN12C cells after 48 hrs by sulforhodamine B assay; assay type: functional
[38] = system: TK-10; experiment: Growth inhibition of human TK10 cells after 48 hrs by sulforhodamine B assay; assay type: functional; conditions: TK-10, 48 h
[39] = system: UO-31; experiment: Growth inhibition of human UO31 cells after 48 hrs by sulforhodamine B assay; assay type: functional; conditions: UO-31, 48 h
[40] = system: PC-3; experiment: Growth inhibition of human PC3 cells after 48 hrs by sulforhodamine B assay; assay type: functional; conditions: PC-3, 48 h
[41] = system: DU-145; experiment: Growth inhibition of human DU145 cells after 48 hrs by sulforhodamine B assay; assay type: functional; conditions: DU-145, 48 h
[42] = system: MCF7; experiment: Growth inhibition of human MCF7 cells after 48 hrs by sulforhodamine B assay; assay type: functional; conditions: MCF7, 48 h
[43] = system: NCI/ADR-RES; experiment: Growth inhibition of human NCI/ADR-RES cells after 48 hrs by sulforhodamine B assay; assay type: functional
[44] = system: MDA-MB-231; experiment: Growth inhibition of human MDA-MB-231 cells after 48 hrs by sulforhodamine B assay; assay type: functional; conditions: MDA-MB-231, 48 h
[45] = Growth inhibition of human Hs 578T cells after 48 hrs by sulforhodamine B assay; assay type: functional
[46] = system: MDA-MB-435; experiment: Growth inhibition of human MDA-MB-435 cells after 48 hrs by sulforhodamine B assay; assay type: functional; conditions: MDA-MB-435, 48 h
[47] = system: MDA-N; experiment: Growth inhibition of human MDA-N cells after 48 hrs by sulforhodamine B assay; assay type: functional
[48] = system: BT-549; experiment: Growth inhibition of human BT549 cells after 48 hrs by sulforhodamine B assay; assay type: functional; conditions: BT-549, 48 h
[49] = system: T47D; experiment: Growth inhibition of human T47D cells after 48 hrs by sulforhodamine B assay; assay type: functional
[50] = system: Plasmodium falciparum; experiment: Antimalarial activity after 72 hrs against chloroquine-sensitive Plasmodium falciparum D6 infected in erythrocytes by LDH assay; assay type: functional, organism-based; conditions: D6, 72 h
[51] = Selectivity index, ratio of TC50 for african green monkey (Cercopithecus aethiops) Vero cells to IC50 for chloroquine-sensitive Plasmodium falciparum D6; assay type: toxicity, cell-based
[52] = system: Plasmodium falciparum; experiment: Antimalarial activity after 72 hrs against chloroquine-resistant Plasmodium falciparum W2 infected erythrocytes by LDH assay; assay type: functional, organism-based; conditions: W2, 72 h
[53] = Selectivity index, ratio of TC50 for african green monkey (Cercopithecus aethiops) Vero cells to IC50 for chloroquine-resistant Plasmodium falciparum W2; assay type: toxicity, cell-based
[54] = Cytotoxicity against african green monkey Vero cells after 48 hrs by neutral red assay; assay type: cell-based; conditions: chlorocebus sabaeus, read-out: TC50
[55] = system: EKVX; experiment: Growth inhibition of human EKVX cells after 48 hrs by sulforhodamine B assay; assay type: functional
[56] = system: HOP-62; experiment: Growth inhibition of human HOP62 cells after 48 hrs by sulforhodamine B assay; assay type: functional; conditions: HOP-62, 48 h
[57] = system: HOP-92; experiment: Growth inhibition of human HOP92 cells after 48 hrs by sulforhodamine B assay; assay type: functional; conditions: HOP-92, 48 h
[58] = system: NCI-H23; experiment: Growth inhibition of human NCI-H23 cells after 48 hrs by sulforhodamine B assay; assay type: functional; conditions: NCI-H23, 48 h
[59] = system: NCI-H322M; experiment: Growth inhibition of human NCI-H322M cells after 48 hrs by sulforhodamine B assay; assay type: functional
[60] = system: NCI-H460; experiment: Growth inhibition of human NCI-H460 cells after 48 hrs by sulforhodamine B assay; assay type: functional; conditions: NCI-H460, 48 h
[61] = system: NCI-H522; experiment: Growth inhibition of human NCI-H522 cells after 48 hrs by sulforhodamine B assay; assay type: functional; conditions: NCI-H522, 48 h
[62] = system: COLO 205; experiment: Growth inhibition of human COLO205 cells after 48 hrs by sulforhodamine B assay; assay type: functional; conditions: COLO 205, 48 h

C=C1[C@@H](OCCCO[C@H]2O[C@@H]3O[C@@]4(C)CC[C@H]5[C@H](C)CC[C@@H](C2=C)[C@@]35OO4)O[C@@H]2O[C@@]3(C)CC[C@H]4[C@H](C)CC[C@@H]1[C@@]24OO3
GI50 [1]: 97 nM | GI50 [2]: 98 nM | GI50 [3]: 50 nM | GI50 [4]: 121 nM | GI50 [5]: 13 nM | GI50 [6]: 28 nM | GI50 [7]: 5330 nM | GI50 [8]: 5980 nM | GI50 [9]: 27 nM | GI50 [10]: 12 nM | GI50 [11]: 43 nM | GI50 [12]: 94 nM | GI50 [13]: 62 nM | GI50 [14]: 6290 nM | GI50 [15]: 7650 nM | GI50 [16]: 5340 nM | GI50 [17]: 11100 nM | GI50 [18]: 288 nM | GI50 [19]: 205 nM | GI50 [20]: 7280 nM | GI50 [21]: 3140 nM | GI50 [22]: 6070 nM | GI50 [23]: 496 nM | GI50 [24]: 479 nM | GI50 [25]: 7200 nM | GI50 [26]: 622 nM | GI50 [27]: 107 nM | GI50 [28]: 73 nM | GI50 [29]: 5040 nM | GI50 [30]: 372 nM | GI50 [31]: 10900 nM | GI50 [32]: 346 nM | GI50 [33]: > 50000 nM | GI50 [34]: 6380 nM | GI50 [35]: 1770 nM | GI50 [36]: 6460 nM | GI50 [37]: 7300 nM | GI50 [38]: 218 nM | GI50 [39]: 181 nM | GI50 [40]: 63 nM | GI50 [41]: 7590 nM | GI50 [42]: 150 nM | GI50 [43]: 533 nM | GI50 [44]: 13100 nM | GI50 [45]: 74 nM | GI50 [46]: 443 nM | GI50 [47]: 518 nM | GI50 [48]: 7520 nM | GI50 [49]: 14 nM | IC50 [50]: 18600 nM | selectivity ratio [51]: > 43 | IC50 [52]: 5100 nM | selectivity ratio [53]: > 159 | CC50 at 48 h [54]: > 806000 nM | GI50 [55]: 476 nM | GI50 [56]: 6880 nM | GI50 [57]: 745 nM | GI50 [58]: 1070 nM | GI50 [59]: 11200 nM | GI50 [60]: 5440 nM | GI50 [61]: 401 nM | GI50 [62]: 122 nM
